Assay results reported in paper PMC3260207, “Site-Directed Mutations and the Polymorphic Variant Ala160Thr in the Human Thromboxane Receptor Uncover a Structural Role for Transmembrane Helix 4” (PLoS ONE, 2012).
Positions count from the first letter of the chain named.

Assays:
[1] = target: T1, TP A160V/F115A double mutant (Homo sapiens, UniProt P21731, A160V/F115A); experiment: Intracellular calcium mobilization (Fluo-4NW) in transfected HEK293T cells; type: cell-based; set-up: expressed in transfected cells; transient, pMT4; conditions: read-out: EC50 of agonist U46619 (calcium mobilized), transiently transfected HEK293T cells, mean ± S.E
T1 sequence (P21731 1-343 F115A/A160V): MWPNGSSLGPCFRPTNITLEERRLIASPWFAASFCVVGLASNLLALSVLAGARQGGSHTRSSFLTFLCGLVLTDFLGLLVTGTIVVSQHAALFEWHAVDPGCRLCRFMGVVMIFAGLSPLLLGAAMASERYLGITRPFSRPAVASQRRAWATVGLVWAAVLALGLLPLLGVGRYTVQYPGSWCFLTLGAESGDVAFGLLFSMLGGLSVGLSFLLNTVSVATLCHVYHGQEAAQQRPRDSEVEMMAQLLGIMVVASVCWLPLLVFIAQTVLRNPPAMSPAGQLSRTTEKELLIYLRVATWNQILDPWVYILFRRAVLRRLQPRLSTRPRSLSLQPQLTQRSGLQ
Experimental: (§1) Amino acid substitutions were introduced into the synthetic TPα gene carried by the expression vector pMT4 as described previously, [29]. DNA sequences of all the mutated genes were verified by automated DNA sequencing. To minimize variations in transfection efficiency, the total amount transfected DNA was kept constant in all cases at 1 µg of DNA per 7×10^5 cells. The wild type TP or mutant genes were expressed in COS-1 cells using a DEAE-dextran based transient transfection method, [29], and in HEK293T cells using lipofectamine 2000 (Invitrogen). Except unless specified, the membranes prepared from COS-1 cells were used for radioligand binding assays and immunoblots. For intracellular calcium determination assays and immunofluorescence imaging, HEK293T cells were used. […] The protein concentration in the resuspended membrane pellet was determined using a modified DC protein assay kit from Bio-Rad Laboratories (Hercules, CA).
(§2) Changes in intracellular calcium were measured by using the fluorescent calcium sensitive dye Fluo-4NW (Invitrogen). […] Dose–response curves were generated and EC50 values calculated by nonlinear regression analysis using PRISM software version 5.0 (GraphPad Software Inc, San Diego, CA) after subtracting the responses of mock-transfected cells stimulated with same concentrations of agonists.

TP F115A mutant [2] = target: T2, TP F115A mutant (Homo sapiens, UniProt P21731, F115A); experiment: as above; type: cell-based; set-up: expressed in transfected cells; transient, pMT4; conditions: read-out: EC50 of agonist U46619 (calcium mobilized), transiently transfected HEK293T cells, mean ± S.E
T2 sequence (P21731 1-343 F115A): T1 sequence (P21731 1-343 F115A/A160V) with V160A
Experimental: as §1, §2

[3] = target: T1, TP A160V/F115A double mutant; experiment: Saturation radioligand binding with [3H] SQ 29,548, membranes; set-up: expressed in transfected cells; host or cells: COS-1 cells (membranes), transient, pMT4; conditions: picomoles of TP per milligram of total membrane protein, mean ± S.E
Experimental: as §1, with “immunoblots.” for “immunoblots. For intracellular calcium determination assays and immunofluorescence imaging, HEK293T cells were used.”
(§3) These were carried out in Buffer C for 60 min at room temperature, using 2 to 20 µg of membrane protein and different concentrations of [^3H] […] Filter-bound radioactivity was measured using a liquid scintillation counter. Equilibrium dissociation constants (Kd) were determined from saturation isotherms using PRISM software version 5.0 (GraphPad Software Inc, San Diego, CA, USA). The Ki values were calculated from the IC50, using the equation of Cheng and Prusoff by PRISM software version 5.0.

TP F115A mutant [4] = target: T2, TP F115A mutant; experiment: as above; set-up: expressed in transfected cells; host or cells: COS-1 cells (membranes), transient, pMT4; conditions: picomoles of TP per milligram of total membrane protein, mean ± S.E
Experimental: as §1, with “immunoblots.” for “immunoblots. For intracellular calcium determination assays and immunofluorescence imaging, HEK293T cells were used.”
as §3

TP F107A mutant = target: T3, TP F107A mutant (Homo sapiens, UniProt P21731, F107A); experiment: as above; conditions: picomoles of TP per milligram of total membrane protein, mean ± S.E
T3 construct: expressed in transfected cells; HEK293T (calcium assays)
T3 sequence (P21731 1-343 F107A): T1 sequence (P21731 1-343 F115A/A160V) with F107A, A115F, V160A
Experimental: (§4) Amino acid substitutions were introduced into the synthetic TPα gene carried by the expression vector pMT4 as described previously, [29]. DNA sequences of all the mutated genes were verified by automated DNA sequencing. To minimize variations in transfection efficiency, the total amount transfected DNA was kept constant in all cases at 1 µg of DNA per 7×10^5 cells. The wild type TP or mutant genes were expressed in COS-1 cells using a DEAE-dextran based transient transfection method, [29], and in HEK293T cells using lipofectamine 2000 (Invitrogen). Except unless specified, the membranes prepared from COS-1 cells were used for radioligand binding assays and immunoblots. For intracellular calcium determination assays and immunofluorescence imaging, HEK293T cells were used. For transient transfections of HEK293T cells using the plasmid pMT4, lipofectamine 2000 (Invitrogen) mediated transfection was used as described by the manufacturer. Membranes were prepared using Buffers A and B and as described previously, [29]. The protein concentration in the resuspended membrane pellet was determined using a modified DC protein assay kit from Bio-Rad Laboratories (Hercules, CA).
(§5) These were carried out in Buffer C for 60 min at room temperature, using 2 to 20 µg of membrane protein and different concentrations of [^3H] […] Binding of [^3H] […] Competition binding assays were performed using 4 nM [^3H] […] Binding was terminated by filtering under vacuum on GF/A filters (Millipore). Filter-bound radioactivity was measured using a liquid scintillation counter. Equilibrium dissociation constants (Kd) were determined from saturation isotherms using PRISM software version 5.0 (GraphPad Software Inc, San Diego, CA, USA). The Ki values were calculated from the IC50, using the equation of Cheng and Prusoff by PRISM software version 5.0.

TP F114A mutant = target: T4, TP F114A mutant (Homo sapiens, UniProt P21731, F114A); experiment: as above; conditions: picomoles of TP per milligram of total membrane protein, mean ± S.E
T4 construct: expressed in transfected cells; HEK293T (calcium assays)
T4 sequence (P21731 1-343 F114A): T1 sequence (P21731 1-343 F115A/A160V) with F114A, A115F, V160A
Experimental: as §4, §5

EC50 [1] [nM]	EC50 (TP F115A mutant [2]) [nM]	Bmax, binding maximum of the ligand SQ 29,548 for the receptor [3] [pmol/mg]	Bmax, binding maximum of the ligand SQ 29,548 for the receptor (TP F115A mutant [4]) [pmol/mg]	Bmax, binding maximum of the ligand SQ 29,548 for the receptor (TP F107A mutant) [pmol/mg]	Bmax, binding maximum of the ligand SQ 29,548 for the receptor (TP F114A mutant) [pmol/mg]	SMILES
43.5 ± 1.5	2 ± 0.3					CCCCC[C@H](O)/C=C/[C@@H]1[C@@H](C/C=C\CCCC(=O)O)[C@H]2CO[C@@H]1C2 [U46619]
		2.1 ± 0.4	1.8 ± 0.2	1.8 ± 0.2	1.6 ± 0.3	O=C(O)CCC/C=C\C[C@@H]1[C@H](CNNC(=O)Nc2ccccc2)[C@H]2CC[C@@H]1O2 [SQ 29,548]
